Columns and labels:
[1] = target: T1, Thymidylate synthetase (TS) (Mus musculus, UniProt P07607); experiment: Thymidylate synthetase (TS) inhibition, 3H release assay; assay type: biochemical; conditions: for TS IRP (inverse relative potency, I50 test compound/I50 CB3717): relative to CB3717
T1 construct: A 50,000 g supernatant was prepared from a TS over-producing (45-fold) L1210 cell line; endogenous in cells; host or cells: L1210 (TS over-producing subline, 45-fold), 50,000 g supernatant
Description: Each compound was dissolved in 0.15M NaHCO3. Thymidylate synthetase was assayed by a ^3 H release method. A 50,000 g supernatant was prepared from a TS over-producing (45-fold) L1210 cell line that was developed in this Institute. The preparation buffer was 0.05M potassium phosphate/0.01M 2-mercaptoethanol, pH 7.4. […] The reaction mixture contained a total of 25 umoles of phosphate. Incubation time was for 1 hour at 37° C.
The results are tabulated below (Table 5). The I50 was defined as the inhibitor concentration necessary to reduce the activity of TS by 50%.

L1210 cells = experiment: L1210 cell culture growth inhibition; assay type: cell-based; conditions: Mus musculus, 48 hours, read-out: L1210 ID50
Description: Cells in the log phase of growth were diluted to about 5×10^4 /ml and duplicate 5ml aliquots were added to 50 ml tissue culture flasks containing the appropriate additions (diluted in RPMI and sterilised by Millipore filtration). Cell counts after 48 hours of incubation were obtained by Coulter counting.

[2] = system: de novo thymidylate synthesis in L1210 cells; experiment: Incorporation of 3H dUrd into acid-precipitable material in L1210 cells; assay type: cell-based
Description: L1210 cells were used at a concentration of 10^5 /ml. Incubation at 37° C. was in complete RPMI tissue culture medium plus or minus drugs for the lengths of time indicated on the graphs. After this time ^3 H dUrd was added at a concentration of 2 uCi/ml (about 0.2 uM). Three 1 ml aliquots were removed after 20 minutes, placed on ice and mixed with 1 ml of ice-cold phosphate buffered saline (PBS). Precipitation onto glass-fibre discs was performed by trichloroacetic acid washing followed by PBS. […] This is an indirect measurement of de novo thymidylate synthesis in whole cells. […] These concentrations are 10 times the ID50 values.

L1210/C15 cells = experiment: L1210/C15 cell culture growth inhibition (overproduces TS 45-fold); assay type: cell-based
Description: Cell counts after 48 hours of incubation were obtained by Coulter counting.

T1 sequence (P07607 whole entry): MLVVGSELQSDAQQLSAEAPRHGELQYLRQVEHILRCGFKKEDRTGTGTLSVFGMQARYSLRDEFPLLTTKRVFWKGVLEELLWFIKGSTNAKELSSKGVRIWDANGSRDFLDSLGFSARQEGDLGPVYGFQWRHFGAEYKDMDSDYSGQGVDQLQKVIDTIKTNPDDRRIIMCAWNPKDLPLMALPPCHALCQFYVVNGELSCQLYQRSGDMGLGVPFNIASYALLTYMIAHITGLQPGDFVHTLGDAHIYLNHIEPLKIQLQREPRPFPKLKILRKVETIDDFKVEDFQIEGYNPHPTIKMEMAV

Compound	TS IRP (inverse relative potency, I50 test compound/I50 CB3717) [1]	IC50 (L1210 cells) [µM]	further results
C=CCN(Cc1ccc2nc[nH]c(=O)c2c1)c1ccc(C(=O)N[C@@H](CCC(=O)O)C(=O)O)cc1 [CB3826, N-(4-(N-((3,4-dihydro-4-oxo-6-quinazolinyl)methyl)prop-2-enylamino)benzoyl)-L-glutamic acid]	56	1.7	
CN(Cc1ccc2nc[nH]c(=O)c2c1)c1ccc(C(=O)N[C@@H](CCC(=O)O)C(=O)O)cc1 [CB3824, N-(4-(N-((3,4-dihydro-4-oxo-6-quinazolinyl)methyl)methylamino)benzoyl)-L-glutamic acid]	53	1.1	
C#CCN(Cc1ccc2nc[nH]c(=O)c2c1)c1ccc(C(=O)N[C@@H](CCC(=O)O)C(=O)O)s1 [CB3866, N-(5-(N-((3,4-dihydro-4-oxo-6-quinazolinyl)methyl)prop-2-ynylamino)thien-2-oyl)-L-glutamic acid]	85		IC50 ([1]; TS from TS over-producing L1210 line, 200 uM (±)-L-5,10-CH2FH4, 1 hour at 37° C, read-out: TS I50): 1.7 µM
Nc1nc2ccc(CNc3ccc(C(=O)N[C@@H](CCC(=O)O)C(=O)O)cc3)cc2c(=O)[nH]1 [CB3705, 5,8-dideazafolic acid]		5	3H dUrd incorporation ([2]; 10 times the ID50 concentration): did not produce rapid suppression; 3H dUrd incorporation ([2]; over 2 hours at the ID50 concentration (5 uM)): did not significantly effect
CCN(Cc1ccc2nc[nH]c(=O)c2c1)c1ccc(C(=O)N[C@@H](CCC(=O)O)C(=O)O)cc1 [CB3822, N-(4-(N-((3,4-dihydro-4-oxo-6-quinazolinyl)methyl)ethylamino)benzoyl)-L-glutamic acid]	26	2.6	
O=C(O)CC[C@H](NC(=O)c1ccc(NCc2ccc3nc[nH]c(=O)c3c2)cc1)C(=O)O [CB3816, N-(4-(((3,4-dihydro-4-oxo-6-quinazolinyl)methyl)amino)benzoyl)-L-glutamic acid]	1136	0.7	
Cc1c(CNc2ccc(C(=O)N[C@@H](CCC(=O)O)C(=O)O)cc2)ccc2nc(N)nc(N)c12 [CB3703, 5CH35,8-dideazaaminopterin]			resistance of L1210/C15 cells (L1210/C15 cells): not resistant
CN(Cc1cnc2nc(N)nc(N)c2n1)c1ccc(C(=O)N[C@@H](CCC(=O)O)C(=O)O)cc1 [methotrexate]			resistance of L1210/C15 cells (L1210/C15 cells): not resistant
